We go through 1 molecule from ChEMBL document CHEMBL1127067 (1993).

As a reminder, the ILS is the gain in survival time of treated over control animals, in per cent.

Holding throughout (format): functional
Test [1] is filed under the species Mus musculus. Briefly: Number of survivors after treating 42 mice (infected with P388 leukemia) for 30 days.
For test [2], the system named is Mus musculus. Nature of the test: Antitumor activity against P388 leukemia in BDF1/CDF1 mice expressed as percentage increase in life span at optimum dose of 12.5 mg/kg.
Test [3] concerns Mus musculus. Briefly: Antitumor activity against B-16 melanoma in BDF1 mice expressed as percentage increase in life span at optimum dose of 6 mg/kg. The following applies: B16.
For test [4], the species on record is Mus musculus. Briefly: Number of survivors after treating 12 mice (infected with B16 melanoma) for 60 days.

For `C(=N\NC1=NCCN1)/c1c2ccccc2c(/C=N/NC2=NCCN2)c2ccccc12` [BISANTRENE], the figures for the Cures in test [1] and in test [4] were 17 and 2, respectively. This molecule also yielded an ILS at 12.5 mg/kg in test [2] of 137%. Also, the ILS at 6 mg/kg in test [3] was 122%.
